Data reported in the supplement of paper PMC5303821, “Major sulfonate transporter Soa1 in Saccharomyces cerevisiae and considerable substrate diversity in its fungal family” (Nature Communications, 2017).
Where a name gives a salt, the structure may show the parent alone.

Assays:
Conditions in all cases: sulfur source concentration 200 µM; S. cerevisiae S288C/BY sul1Δ sul2Δ soa1Δ with transporter ortholog inserted at SOA1 locus; sulfur-free B medium, 4% glucose, pH 6.5, sole sulfur source
[1] = test system: Aspergillus nidulans (IAM 2006)_astA; assay: lag phase before growth; higher = slower start of growth
Description: (§1)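 S. cerevisiae sul1Δ sul2Δ soa1Δ strains expressing 20 fungal SOA1 orthologs (or no transporter, 'soa1 del') were grown in liquid sulfur-free B medium, 4% glucose, pH 6.5 (7 mM K2HPO4). The strains were sulfur-starved for 3 days beforehand. Each sulfur compound was the sole sulfur source at 200 µM (sulfate also at 40 mM). OD600 curves of duplicate cultures were averaged and fitted (logistic / Richards, GroFit) to give maximal growth rate, maximal density and lag phase; temperature not stated.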

[2] = test system: Metarhizium robertsii_XP_007823832; assay: as above
Description: as §1

[3] = test system: Ogataea parapolymorpha_XP_013935289; assay: as above
Description: as §1

[4] = test system: Saccharomyces cerevisiae_SOA1; assay: as above
Description: as §1

[5] = test system: Aspergillus nidulans (IAM 2006)_astA; assay: maximal culture density with compound as sole sulfur source (OD600); higher = better growth
Description: as §1

[6] = test system: Aspergillus nidulans_CBF74694; assay: as above
Description: as §1

[7] = test system: Aspergillus nidulans_CBF80346; assay: as above
Description: as §1

[8] = test system: Aspergillus nidulans_XP_660563; assay: as above
Description: as §1

[9] = test system: Aspergillus nidulans_XP_660670; assay: as above
Description: as §1

[10] = test system: Aspergillus nidulans_XP_661711; assay: as above
Description: as §1

[11] = test system: Aspergillus nidulans_XP_661733; assay: as above
Description: as §1

[12] = test system: Aspergillus nidulans_XP_681611; assay: as above
Description: as §1

[13] = test system: Fusarium oxysporum_ENH65823; assay: as above
Description: as §1

[14] = test system: Metarhizium robertsii_XP_007821441; assay: as above
Description: as §1

[15] = test system: Metarhizium robertsii_XP_007822519; assay: as above
Description: as §1

[16] = test system: Metarhizium robertsii_XP_007823832; assay: as above
Description: as §1

[17] = test system: Ogataea parapolymorpha_XP_013932458; assay: as above
Description: as §1

[18] = test system: Ogataea parapolymorpha_XP_013935289; assay: as above
Description: as §1

[19] = test system: Ogataea parapolymorpha_XP_013936897; assay: as above
Description: as §1

[20] = test system: Saccharomyces cerevisiae_SOA1; assay: as above
Description: as §1

[21] = test system: Saccharomyces eubayanus_SOA1; assay: as above
Description: as §1

[22] = test system: Saccharomyces eubayanus_SOA2; assay: as above
Description: as §1

[23] = test system: Saccharomyces uvarum_SOA1; assay: as above
Description: as §1

[24] = test system: Saccharomyces uvarum_SOA2; assay: as above
Description: as §1

soa1 del [25] = assay: as above
Description: as §1

[26] = test system: Aspergillus nidulans (IAM 2006)_astA; assay: maximal growth rate with compound as sole sulfur source (OD600 per h); higher = better growth / uptake of the sulfur source
Description: as §1

[27] = test system: Aspergillus nidulans_CBF74694; assay: as above
Description: as §1

[28] = test system: Aspergillus nidulans_CBF80346; assay: as above
Description: as §1

[29] = test system: Aspergillus nidulans_XP_660563; assay: as above
Description: as §1

[30] = test system: Aspergillus nidulans_XP_660670; assay: as above
Description: as §1

[31] = test system: Aspergillus nidulans_XP_661711; assay: as above
Description: as §1

[32] = test system: Aspergillus nidulans_XP_661733; assay: as above
Description: as §1

[33] = test system: Aspergillus nidulans_XP_681611; assay: as above
Description: as §1

[34] = test system: Fusarium oxysporum_ENH65823; assay: as above
Description: as §1

[35] = test system: Metarhizium robertsii_XP_007821441; assay: as above
Description: as §1

[36] = test system: Metarhizium robertsii_XP_007822519; assay: as above
Description: as §1

[37] = test system: Metarhizium robertsii_XP_007823832; assay: as above
Description: as §1

[38] = test system: Ogataea parapolymorpha_XP_013932458; assay: as above
Description: as §1

[39] = test system: Ogataea parapolymorpha_XP_013935289; assay: as above
Description: as §1

[40] = test system: Ogataea parapolymorpha_XP_013936897; assay: as above
Description: as §1

[41] = test system: Saccharomyces cerevisiae_SOA1; assay: as above
Description: as §1

[42] = test system: Saccharomyces eubayanus_SOA1; assay: as above
Description: as §1

[43] = test system: Saccharomyces eubayanus_SOA2; assay: as above
Description: as §1

[44] = test system: Saccharomyces uvarum_SOA1; assay: as above
Description: as §1

[45] = test system: Saccharomyces uvarum_SOA2; assay: as above
Description: as §1

soa1 del [46] = assay: as above
Description: as §1

For `C[N+](C)(C)CCOS(=O)(=O)[O-]` [Choline sulfate], which “lag phase before growth” value [1] is on record?
Its value is 6.39 h.

What about the “lag phase before growth” value [2] of the same compound?
Its value is 8.32 h.

What about the “lag phase before growth” value [3] of the same compound?
Its value is 19.4 h.

And the “lag phase before growth” value [4]?
Its value is 28.7 h.

And the maximal culture density [5]?
Its maximal culture density is 1.61.

And the maximal culture density [6]?
Its maximal culture density is 0.215.

What about the maximal culture density [7] of the same compound?
Its maximal culture density is 0.245.

What about the maximal culture density [8] of the same compound?
The maximal culture density was 0.381.

What about the maximal culture density [9] of the same compound?
Its maximal culture density is 0.282.

And the maximal culture density [10]?
Its maximal culture density is 0.282.

What about the maximal culture density [11] of the same compound?
Its maximal culture density is 0.257.

And the maximal culture density [12]?
The maximal culture density was 0.352.

What about the maximal culture density [13] of the same compound?
The maximal culture density was 0.284.

What about the maximal culture density [14] of the same compound?
Its maximal culture density is 0.25.

And the maximal culture density [15]?
The maximal culture density was 0.238.

What about the maximal culture density [16] of the same compound?
The maximal culture density was 1.61.

What about the maximal culture density [17] of the same compound?
Its maximal culture density is 0.288.

And the maximal culture density [18]?
Its maximal culture density is 1.6.

And the maximal culture density [19]?
Its maximal culture density is 0.335.

And the maximal culture density [20]?
The maximal culture density was 1.59.

And the maximal culture density [21]?
The maximal culture density was 0.49.

And the maximal culture density [22]?
Its maximal culture density is 0.202.

And the maximal culture density [23]?
Its maximal culture density is 0.69.

And the maximal culture density [24]?
The maximal culture density was 0.237.

What about the maximal culture density (soa1 del [25]) of the same compound?
Its maximal culture density is 0.22.

What about the maximal growth rate [26] of the same compound?
The maximal growth rate was 0.0987.

And the maximal growth rate [27]?
Its maximal growth rate is 0.00254.

What about the maximal growth rate [28] of the same compound?
The maximal growth rate was 0.00384.

What about the maximal growth rate [29] of the same compound?
The maximal growth rate was 0.0061.

And the maximal growth rate [30]?
Its maximal growth rate is 0.00346.

What about the maximal growth rate [31] of the same compound?
The maximal growth rate was 0.00345.

And the maximal growth rate [32]?
Its maximal growth rate is 0.00364.

What about the maximal growth rate [33] of the same compound?
The maximal growth rate was 0.0057.

And the maximal growth rate [34]?
Its maximal growth rate is 0.00381.

What about the maximal growth rate [35] of the same compound?
The maximal growth rate was 0.00312.

And the maximal growth rate [36]?
Its maximal growth rate is 0.00309.

And the maximal growth rate [37]?
The maximal growth rate was 0.0809.

What about the maximal growth rate [38] of the same compound?
The maximal growth rate was 0.00365.

And the maximal growth rate [39]?
Its maximal growth rate is 0.072.

And the maximal growth rate [40]?
The maximal growth rate was 0.00441.

And the maximal growth rate [41]?
Its maximal growth rate is 0.0576.

What about the maximal growth rate [42] of the same compound?
Its maximal growth rate is 0.0058.

What about the maximal growth rate [43] of the same compound?
Its maximal growth rate is 0.00319.

What about the maximal growth rate [44] of the same compound?
Its maximal growth rate is 0.00649.

And the maximal growth rate [45]?
The maximal growth rate was 0.00318.

And the maximal growth rate (soa1 del [46])?
The maximal growth rate was 0.00393.
